# From patent US20110158980A1, “METHODS TO TREAT AND SCREEN FOR AGENTS TO TREAT OBESITY” (TRUSTEES OF TUFTS COLLEGE, priority 2008, published 2011)
# What was measured:
# 3T3-L1 adipocytes [1] = test: Oxygen uptake rate by fiber-optic microsensor; assay type: cell-based; settings: phenylacetate at the higher concentration (10 mM); day 12 post-induction; FIG. 2F
# Experimental: The dissolved oxygen in the culture medium was measured using a needle-type fiber-optic microsensor (MicroxTX3, Presens, Regensburg, Germany). The concentration data were related to the oxygen uptake rate (OUR) using the following diffusion-reaction model:
# where c0 and hb are, respectively, the oxygen concentration at medium surface and height of the medium in the culture well. The bottom of the culture plate (and cell monolayer) is at z=−hb. Integrating equation (1) and applying the boundary conditions we obtain: […]
# where hm and cm are, respectively, the distance between the probe and the medium surface and the measured oxygen concentration in the medium at the probe depth. The oxygen uptake rate was calculated by dividing the flux JO2 by the cell density. The measured oxygen uptake rate was used for relative comparisons between the treatment groups and not used for MFA in order to independently confirm the calculated oxygen uptake rate.
# 3T3-L1 adipocytes [2] = test: Metabolite assays (TG, FFA, glucose, lactate, glycerol) on cell lysates and spent medium; assay type: cell-based; settings: day 12 post-induction
# Experimental: 3T3-L1 preadipocytes were plated onto 24-well plates and expanded in preadipocyte growth medium consisting of DMEM supplemented with calf serum (10% v/v), penicillin and streptomycin. Medium was replenished every other day. Two days post-confluence, the cells were induced to differentiate using an adipogenic cocktail (1 μg/ml insulin, 0.5 mM isobutylmethylxanthine, and 1 μM dexamethasone) added to a basal medium (DMEM with 10% fetal bovine serum and penicillin/streptomycin). After 48 hrs, the first medium was replaced with a second induction medium consisting of the basal adipocyte medium supplemented with only insulin. […] This basal medium was replenished every other day during the remainder of the culture experiments.
# Metabolite measurements were performed both on cell lysates and spent medium samples as described previously (Si Y, Yoon J, Lee K. American journal of physiology 2007; 292:E1637-46). Cells were lysed in situ with an 0.1% SDS buffer and sonicated. Immediately after collection, the spent medium samples were cleaned of cell debris by a brief centrifugation step. Free glycerol, TG and free fatty acids (FFAs) were measured using enzymatic assay kits (SIGMA™). Glucose and lactate concentrations were measured using the methods of Trinder (Trinder P. J Clin Pathol 1969; 22:158-61) and Loomis (Loomis M E. J Lab Clin Med 1961; 57:966-9), respectively. Amino acids were quantified by HPLC using fluorescence-based detection following pre-column derivatization of primary or secondary amines with 6-aminoquinolyl-N-hydroxysuccinimidyl-carbamate (Cohen S A, De Antonis K M. J Chromatogr A 1994; 661:25-34). All metabolite data were normalized by the corresponding cell sample DNA content, which was determined with a fluorescence-based assay using the Hoechst dye.
compound,measurement,setting,value
O=C(O)Cc1ccccc1 [phenylacetate],Reduction of oxygen consumption,3T3-L1 adipocytes [1],25%
same,Increase of glucose uptake,3T3-L1 adipocytes [2]; 5 mM phenylacetate,38%
same,Increase of glycerol output,3T3-L1 adipocytes [2]; 5 mM phenylacetate,1.2 fold
same,Increase of lactate output,3T3-L1 adipocytes [2]; 5 mM phenylacetate,more than 2 fold
same,Reduction of intracellular free fatty acid concentration,3T3-L1 adipocytes [2]; 5 mM phenylacetate,9%
same,Increase of glucose uptake,3T3-L1 adipocytes [2]; 10 mM phenylacetate,28%
same,Increase of glycerol output,3T3-L1 adipocytes [2]; 10 mM phenylacetate,1.4 fold
same,Increase of lactate output,3T3-L1 adipocytes [2]; 10 mM phenylacetate,more than 2 fold
same,Reduction of intracellular free fatty acid concentration,3T3-L1 adipocytes [2]; 10 mM phenylacetate,17%
